Assay [1] relates to WEHI265.1. The assay is described as follows: Antiinflammatory activity in LPS-induced mouse WEHI265.1 cells assessed as reduction in IL-6 level at 10 uM by ELISA relative to control. Format: functional. (In general: In an ELISA, binding on a coated surface is turned into a signal by an enzyme label.)
For assay [2], the system named is WEHI265.1. Put plainly: Antiinflammatory activity in LPS-induced mouse WEHI265.1 cells assessed as reduction in IL-6 level by ELISA. Format: functional, cell-based.
Assay [3] has as its system Mus musculus. The assay is described as follows: Antiinflammatory activity in LPS-induced mouse model assessed as reduction in IL-6 level in serum at 25 mg/kg, po relative to control. Format: functional.
For assay [4], the target named is RAC-alpha serine/threonine-protein kinase (Homo sapiens) (UniProt P31749). Put plainly: Inhibition of AKT (unknown origin) assessed as reduction in […] phosphorylation at 10 ug/ml by cell based assay relative to control.
The species named for assay [5] is Homo sapiens. The assay is described as follows: Inhibition of PI3K (unknown origin) assessed as reduction in PI3K phosphorylation by cell based assay at 10 ug/ml relative to control.
Assay [6] relates to RAW264.7. The assay is described as follows: Effect on IL-6 mRNA expression in mouse RAW264.7 cells at 10 ug/ml relative to control. Format: functional.
The species named for assay [7] is Homo sapiens. Put plainly: Inhibition of MAPK (unknown origin) assessed as reduction in […] phosphorylation by cell based assay at 10 ug/ml relative to control.

SMILES strings stand for the structures.

As a reminder, the inhibition is the relative decrease from the control value, in per cent. As a reminder, the IC50 is the point on the concentration scale where inhibition reaches its midpoint. By inhibition in vivo is commonly meant the percentage by which the read-out fell short of the control.

Sequence of RAC-alpha serine/threonine-protein kinase (Homo sapiens) (P31749 whole entry): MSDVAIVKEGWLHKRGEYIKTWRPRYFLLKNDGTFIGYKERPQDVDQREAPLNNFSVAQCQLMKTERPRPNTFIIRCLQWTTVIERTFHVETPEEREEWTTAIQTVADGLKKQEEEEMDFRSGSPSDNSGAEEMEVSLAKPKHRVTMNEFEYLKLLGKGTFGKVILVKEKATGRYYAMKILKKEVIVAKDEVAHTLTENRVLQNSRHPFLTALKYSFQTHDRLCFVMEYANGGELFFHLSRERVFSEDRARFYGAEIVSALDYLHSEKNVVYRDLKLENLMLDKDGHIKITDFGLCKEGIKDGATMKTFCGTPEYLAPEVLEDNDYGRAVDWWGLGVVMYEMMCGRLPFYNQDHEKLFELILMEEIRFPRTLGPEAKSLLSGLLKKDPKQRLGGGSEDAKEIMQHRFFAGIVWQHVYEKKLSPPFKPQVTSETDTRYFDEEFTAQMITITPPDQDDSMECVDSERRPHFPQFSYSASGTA

On to `O=c1c2c(n3c(c1-c1ccccc1)SCC3)CCC2`, for which, in assay [1], the inhibition at 10 µM was found to be 52%. In addition, the IC50 in assay [2] was 200 nM.

Turning to `CC(=O)Nc1ccccc1-c1c2n(c3c(c1=O)CCC3)CCN2`, in assay [1], the inhibition at 10 µM amounted to 74%. Moreover, in assay [2], the IC50 turned out to be 200 nM.

In the case of `O=c1c2c(n3c(c1-c1ccccc1[N+](=O)[O-])NCC3)CCC2`, in assay [1], the inhibition at 10 µM came out at 73%. Besides, in assay [2], the IC50 amounted to 200 nM.

For the molecule `Oc1ccc(-c2cccc(-c3ccc(O)cc3)c2)cc1`, the inhibition at 10 µM in assay [1] was 85%. The inhibition in vivo at 25 mg/kg in assay [3] came out at 88%.

For `O=c1c2c(n3c(c1-c1ccccc1)OCC3)CCC2`, the inhibition at 10 µM in assay [1] was 20%. Further, the IC50 in assay [2] came to 200 nM.

In the case of `O=c1c2c(n3c(c1-c1ccccc1Cl)NCC3)CCC2`, the inhibition at 10 µM in assay [1] was 90%. In addition, in assay [2], the IC50 amounted to 200 nM.

Consider `COc1ccccc1-c1c2n(c3c(c1=O)CCC3)CCN2`, for which the inhibition at 10 µM in assay [1] was 82%. In addition, in assay [2], the IC50 was 200 nM.

`Nc1ccccc1-c1c2n(c3c(c1=O)CCC3)CCN2`: the inhibition at 10 µM in assay [1] turned out to be 82%. Further, the IC50 in assay [2] was 200 nM.

Take `O=c1c2c(n3c(c1-c1ccccc1)NCC3)CCC2`: in assay [1], the inhibition at 10 µM stood at 74%. The IC50 in assay [2] came out at 200 nM.

With `Oc1ccc(-c2cncc(-c3ccc(O)cc3)c2)cc1`, the inhibition at 10 µM in assay [1] worked out at 73%. Also, the inhibition in vivo at 25 mg/kg in assay [3] worked out at 71%.

On to `Oc1ccc(-c2cncc(-c3ccc(O)cc3)n2)cc1`, for which the inhibition at 10 µM in assay [1] turned out to be 55%.

For the molecule `CN1CCn2c3c(c(=O)c(-c4ccccc4)c21)CCC3`, the inhibition at 10 µM in assay [1] was 43%. In assay [2], the IC50 stood at 200 nM.

`COC(=O)CCC(=O)Nc1ccccc1C(=O)OC`: the results for the inhibition in assay [4], in assay [5] and in assay [7] were 70%, 51% and 54%, respectively. This molecule displayed an Activity in assay [6] of 33%.
